Test results reported in ChEMBL document CHEMBL5584294, “Adpressins A-G: Oligophenalenone Dimers from Talaromyces adpressus” (J Nat Prod, 2024).

How the values were obtained:
B-cell line = test: Immunosuppressive activity in BALB/c mouse B-lymphocytes assessed as inhibition of LPS-induced cell proliferation pretreated with LPS for 24 hrs followed by compound addition and measured after 48 hrs by CCK-8 assay; format: functional, cell-based
T-cell [1] = test: Immunosuppressive activity in BALB/c mouse T-lymphocytes assessed as inhibition of ConA-induced cell proliferation pretreated with Concanavalin A for 24 hrs followed by compound addition and measured after 48 hrs by CCK-8 assay; format: functional, cell-based
T-cell [2] = test: (§1) Immunosuppressive activity in ConA-induced BALB/c mouse T-lymphocytes assessed as Treg cell subsets by measuring CD25positiveFOXP3negative cells at 2.5 uM pretreated with Concanavalin A for 24 hrs followed by compound addition and measured after 48 hrs by flow cytometry analysis (reference value: 66.9%); format: functional
T-cell [3] = test: as §1, with “CD25negativeFOXP3positive” for “CD25positiveFOXP3negative”, “0.2%)” for “66.9%)”; format: functional
T-cell [4] = test: (§2) Immunosuppressive activity in BALB/c mouse T-lymphocytes assessed as reduction in ConA-induced CD4 subpopulation by measuring CD3negativeCD4positive cells at 2.5 uM pretreated with Concanavalin A for 24 hrs followed by compound addition and measured after 48 hrs by flow cytometry analysis (reference value: 0%); format: functional; parameters: scale not given: the % may be the effect or the level left
T-cell [5] = test: as §2, with “CD3negativeCD4negative” for “CD3negativeCD4positive”; format: functional; parameters: scale not given: the % may be the effect or the level left
T-cell [6] = test: as §2, with “CD8” for “CD4”, “CD3positiveCD8negative” for “CD3negativeCD4positive”, “5” for “2.5”, “70.9%)” for “0%)”; format: functional; parameters: scale not given: the % may be the effect or the level left
T-cell [7] = test: as §2, with “CD8” for “CD4”, “CD3positiveCD8positive” for “CD3negativeCD4positive”, “29.1%)” for “0%)”; format: functional; parameters: scale not given: the % may be the effect or the level left
T-cell [8] = test: as §2, with “CD3positiveCD4positive” for “CD3negativeCD4positive”, “87.8%)” for “0%)”; format: functional; parameters: scale not given: the % may be the effect or the level left
T-cell [9] = test: as §1, with “CD25positiveFOXP3positive” for “CD25positiveFOXP3negative”, “5” for “2.5”, “5.7%)” for “66.9%)”; format: functional
T-cell [10] = test: as §1, with “5” for “2.5”; format: functional
T-cell [11] = test: as §2, with “CD8” for “CD4”, “CD3negativeCD8positive” for “CD3negativeCD4positive”, “5” for “2.5”; format: functional; parameters: scale not given: the % may be the effect or the level left
T-cell [12] = test: as §2, with “CD3negativeCD4negative” for “CD3negativeCD4positive”, “5” for “2.5”; format: functional; parameters: scale not given: the % may be the effect or the level left
T-cell [13] = test: as §2, with “5” for “2.5”; format: functional; parameters: scale not given: the % may be the effect or the level left
T-cell [14] = test: as §2, with “CD8” for “CD4”, “CD3negativeCD8negative” for “CD3negativeCD4positive”; format: functional; parameters: scale not given: the % may be the effect or the level left
T-cell [15] = test: as §2, with “CD8” for “CD4”, “CD3positiveCD8positive” for “CD3negativeCD4positive”, “5” for “2.5”, “29.1%)” for “0%)”; format: functional; parameters: scale not given: the % may be the effect or the level left
T-cell [16] = test: as §1, with “CD25negativeFOXP3positive” for “CD25positiveFOXP3negative”, “5” for “2.5”, “0.2%)” for “66.9%)”; format: functional
T-cell [17] = test: as §2, with “CD8” for “CD4”, “CD3negativeCD8positive” for “CD3negativeCD4positive”; format: functional; parameters: scale not given: the % may be the effect or the level left
T-cell [18] = test: as §2, with “CD8” for “CD4”, “CD3positiveCD8negative” for “CD3negativeCD4positive”, “70.9%)” for “0%)”; format: functional; parameters: scale not given: the % may be the effect or the level left
T-cell [19] = test: as §1, with “CD25negativeFOXP3negative” for “CD25positiveFOXP3negative”, “5” for “2.5”, “27.2%)” for “66.9%)”; format: functional
T-cell [20] = test: as §2, with “CD3positiveCD4negative” for “CD3negativeCD4positive”, “5” for “2.5”, “12.2%)” for “0%)”; format: functional; parameters: scale not given: the % may be the effect or the level left
T-cell [21] = test: as §1, with “CD25positiveFOXP3positive” for “CD25positiveFOXP3negative”, “5.7%)” for “66.9%)”; format: functional
T-cell [22] = test: as §2, with “CD8” for “CD4”, “CD3negativeCD8negative” for “CD3negativeCD4positive”, “5” for “2.5”; format: functional; parameters: scale not given: the % may be the effect or the level left
T-cell [23] = test: as §2, with “CD3positiveCD4positive” for “CD3negativeCD4positive”, “5” for “2.5”, “87.8%)” for “0%)”; format: functional; parameters: scale not given: the % may be the effect or the level left
T-cell [24] = test: as §1, with “CD25negativeFOXP3negative” for “CD25positiveFOXP3negative”, “27.2%)” for “66.9%)”; format: functional
T-cell [25] = test: as §2, with “CD3positiveCD4negative” for “CD3negativeCD4positive”, “12.2%)” for “0%)”; format: functional; parameters: scale not given: the % may be the effect or the level left
T-cell [26] = test: as §2, with “CD8” for “CD4”, “CD3positiveCD8positive” for “CD3negativeCD4positive”, “10” for “2.5”, “29.1%)” for “0%)”; format: functional; parameters: scale not given: the % may be the effect or the level left
T-cell [27] = test: as §2, with “10” for “2.5”; format: functional; parameters: scale not given: the % may be the effect or the level left
T-cell [28] = test: as §2, with “CD3negativeCD4negative” for “CD3negativeCD4positive”, “10” for “2.5”; format: functional; parameters: scale not given: the % may be the effect or the level left
T-cell [29] = test: as §1, with “CD25negativeFOXP3positive” for “CD25positiveFOXP3negative”, “10” for “2.5”, “0.2%)” for “66.9%)”; format: functional
T-cell [30] = test: as §2, with “CD8” for “CD4”, “CD3negativeCD8positive” for “CD3negativeCD4positive”, “10” for “2.5”; format: functional; parameters: scale not given: the % may be the effect or the level left
T-cell [31] = test: as §2, with “CD3positiveCD4negative” for “CD3negativeCD4positive”, “10” for “2.5”, “12.2%)” for “0%)”; format: functional; parameters: scale not given: the % may be the effect or the level left
T-cell [32] = test: as §2, with “CD8” for “CD4”, “CD3negativeCD8negative” for “CD3negativeCD4positive”, “10” for “2.5”; format: functional; parameters: scale not given: the % may be the effect or the level left
T-cell [33] = test: as §2, with “CD8” for “CD4”, “CD3positiveCD8negative” for “CD3negativeCD4positive”, “10” for “2.5”, “70.9%)” for “0%)”; format: functional; parameters: scale not given: the % may be the effect or the level left
T-cell [34] = test: as §1, with “10” for “2.5”; format: functional
T-cell [35] = test: as §1, with “CD25negativeFOXP3negative” for “CD25positiveFOXP3negative”, “10” for “2.5”, “27.2%)” for “66.9%)”; format: functional
T-cell [36] = test: as §1, with “CD25positiveFOXP3positive” for “CD25positiveFOXP3negative”, “10” for “2.5”, “5.7%)” for “66.9%)”; format: functional
T-cell [37] = test: as §2, with “CD3positiveCD4positive” for “CD3negativeCD4positive”, “10” for “2.5”, “87.8%)” for “0%)”; format: functional; parameters: scale not given: the % may be the effect or the level left

CC(=O)O[C@H]1[C@@H]2C(=O)c3c(C)cc(O)c4c3[C@@]1(COC4=O)C1=C2c2c(C)cc(O)c3c2[C@@](O)(COC3=O)C1=O
IC50 (B-cell line): > 40 µM
IC50 (T-cell [1]): > 40 µM

CC(=O)O[C@H]1[C@@H]2C(=O)c3c(C)cc(O)c4c3[C@@]1(COC4=O)c1c(O)c3c4c(c(O)cc(C)c4c12)C(=O)O3
IC50 (B-cell line): > 40 µM
IC50 (T-cell [1]): > 40 µM

COC(=O)C[C@H]1OC(=O)c2c(O)cc(C)c3c2C1=C(O)C1[C@]24COC(=O)c5c(O)cc(C)c(c52)C(=O)[C@@H]([C@@H]4OC(C)=O)[C@]31OC (stereo partly specified)
IC50 (B-cell line): > 40 µM
IC50 (T-cell [1]): > 40 µM

Cc1cc(O)c2c3c1C(=O)[C@@H]1c4c(c5oc(=O)ccc5c5cc(O)cc(C)c45)[C@@]3(COC2=O)[C@H]1O
IC50 (B-cell line): > 40 µM
IC50 (T-cell [1]): > 40 µM

COC(=O)C[C@@H]1OC(=O)c2c(O)cc(C)c3c4c(c(O)c1c23)[C@]12COC(=O)c3c(O)cc(C)c(c31)C(=O)[C@H]4[C@@H]2O
IC50 (B-cell line): > 40 µM
IC50 (T-cell [1]): > 40 µM

CC1(C)C2CCC1(CS(=O)(=O)O)C(=O)C2 (stereo unspecified)
IC50 (B-cell line): < 0.04 µM
IC50 (T-cell [1]): < 0.04 µM

COC(=O)C[C@H]1OC(=O)c2c(O)cc(C)c3c4c(c(O)c1c23)[C@]12COC(=O)c3c(O)cc(C)c(c31)C(=O)[C@H]4[C@@H]2O
IC50 (B-cell line): > 40 µM
IC50 (T-cell [1]): > 40 µM

COC(=O)C[C@H]1OC(=O)c2c(O)cc(C)c3c4c(c(O)c1c23)[C@]12COC(=O)c3c(O)cc(C)c(c31)C(=O)[C@H]4[C@@H]2OC(C)=O
IC50 (B-cell line): > 40 µM
IC50 (T-cell [1]): > 40 µM

Cc1cc(O)c2c3c1C1=C(C(=O)C3C3CCCN3C2=O)[C@]23COC(=O)c4c(O)cc(C)c(c42)C(=O)[C@H]1[C@@H]3O (stereo partly specified)
IC50 (B-cell line): > 40 µM
IC50 (T-cell [1]): > 40 µM

Cc1cc(O)c2c3c1C(=O)[C@@H]1c4c(c(O)cc5cc(O)cc(C)c45)[C@@]3(COC2=O)[C@H]1O
IC50 (B-cell line): > 40 µM
IC50 (T-cell [1]): > 40 µM

Cc1cc(O)c2c3c1C(=O)[C@@H]1c4c(c(O)c5c6c(c(O)cc(C)c46)C(=O)O5)[C@@]3(COC2=O)[C@H]1O
IC50 (B-cell line): > 40 µM
IC50 (T-cell [1]): > 40 µM

Cc1cc(O)c2c3c1C(=O)[C@@H]1C4=C(C(=O)c5cn(CCO)c(=O)c6c(O)cc(C)c4c56)[C@@]3(COC2=O)[C@H]1O
IC50 (B-cell line): > 40 µM
IC50 (T-cell [1]): > 40 µM

COC(=O)C[C@@H]1OC(=O)c2c(O)cc(C)c3c4c(c(O)c1c23)[C@]12COC(=O)c3c(O)cc(C)c(c31)C(=O)[C@H]4[C@@H]2OC(C)=O
IC50 (B-cell line): 8.6 µM
IC50 (T-cell [1]): 12.8 µM

CC(=O)O[C@H]1[C@@H]2C(=O)c3c(C)cc(O)c4c3[C@@]1(COC4=O)C1=C2c2c(C)cc(O)c3c2C(C1=O)C1CCCN1C3=O (stereo partly specified)
IC50 (B-cell line): > 40 µM
IC50 (T-cell [1]): > 40 µM

Cc1cc(O)c2c3c1C(=O)[C@@H]1c4c(c(O)c5c6c(c(O)cc(C)c46)C(=O)OC5)[C@@]3(COC2=O)[C@H]1O
IC50 (B-cell line): > 40 µM
IC50 (T-cell [1]): > 40 µM

COC(=O)CCCn1cc2c3c(c(C)cc(O)c3c1=O)C1=C(C2=O)[C@]23COC(=O)c4c(O)cc(C)c(c42)C(=O)[C@H]1[C@@H]3OC(C)=O
Activity (T-cell [2]): 78.3%
Activity (T-cell [3]): 0.1%
Activity (T-cell [4]): 0%
Activity (T-cell [5]): 0%
Activity (T-cell [6]): 69.9%
Activity (T-cell [7]): 31.4%
Activity (T-cell [8]): 83.2%
Activity (T-cell [9]): 3.3%
Activity (T-cell [10]): 75.4%
Activity (T-cell [11]): 0%
Activity (T-cell [12]): 0%
Activity (T-cell [13]): 77.7%
Activity (T-cell [14]): 0%
IC50 (B-cell line): 1.6 µM
Activity (T-cell [15]): 30.1%
Activity (T-cell [16]): 0.4%
Activity (T-cell [17]): 0%
Activity (T-cell [18]): 68.6%
IC50 (T-cell [1]): 2.6 µM
Activity (T-cell [19]): 20.8%
Activity (T-cell [20]): 0%
Activity (T-cell [21]): 3.5%
Activity (T-cell [22]): 0%
Activity (T-cell [23]): 22.3%
Activity (T-cell [24]): 18.1%
Activity (T-cell [25]): 16.8%

CO[C@@H]1N(CCO)C(=O)c2c(O)cc(C)c3c2[C@]1(O)C(=O)C1=C3[C@H]2C(=O)c3c(C)cc(O)c4c3[C@]1(COC4=O)[C@H]2O
Activity (T-cell [26]): 38.8%
Activity (T-cell [27]): 0%
Activity (T-cell [6]): 60.5%
Activity (T-cell [28]): 0%
Activity (T-cell [9]): 4.6%
Activity (T-cell [29]): 0.3%
Activity (T-cell [30]): 0%
Activity (T-cell [31]): 24.1%
Activity (T-cell [10]): 77.2%
Activity (T-cell [11]): 0%
Activity (T-cell [12]): 0%
Activity (T-cell [32]): 0%
Activity (T-cell [13]): 0%
IC50 (B-cell line): 2.1 µM
Activity (T-cell [15]): 39.5%
Activity (T-cell [16]): 0.1%
Activity (T-cell [33]): 61.2%
IC50 (T-cell [1]): 9.3 µM
Activity (T-cell [34]): 76%
Activity (T-cell [19]): 18.1%
Activity (T-cell [35]): 21.3%
Activity (T-cell [20]): 23.4%
Activity (T-cell [22]): 0%
Activity (T-cell [23]): 76.6%
Activity (T-cell [36]): 2.5%
Activity (T-cell [37]): 75.9%

Cc1cc(O)c2c3c1C(=O)[C@@H]1c4c(c(O)c5c6c(c(O)cc(C)c46)C(=O)OC5=O)[C@@]3(COC2=O)[C@H]1O
IC50 (B-cell line): > 40 µM
IC50 (T-cell [1]): > 40 µM

CC(=O)O[C@H]1[C@@H]2C(=O)c3c(C)cc(O)c4c3[C@@]1(COC4=O)c1c(O)cc3cc(O)cc(C)c3c12
IC50 (B-cell line): > 40 µM
IC50 (T-cell [1]): > 40 µM
